Consider one molecule from US20100092456A1, “METHODS OF TREATMENT” (priority 2006, published 2010).

The target in assay [1] is T1, PIP 5-K (Mus musculus, UniProt P70181).
T1 construct: expressed in transfected cells; host or cells: HeLa cells
In words: Localisation of GFP PIP 5-K in HeLa cells by confocal laser scanning microscopy. The class given is cell-based. Particulars: 600 microMolar, away from the plasma membrane. As for the experimental part:
Panel A: HeLa cell were transiently transfected with expression plasmids encoding for a GFP fusion protein of PIP 5-K. In healthy cells GFP PIP 5-K is located at the plasma membrane. Cells were then treated with 600 microMolar H2O2 and the localisation of the GFP PIP 5-K was monitored on line using confocal laser scanning microscopy.
HeLa cells were transiently transfected with expression plasmids encoding for a GFP fusion protein of PIP 5-K. In healthy cells GFP PIP 5-K is located at the plasma membrane. Cells were then treated with 600 microMolar H2O2 and the localisation of the GFP PIP 5-K was monitored on line using confocal laser scanning microscopy. […] H2O2 regulates the localisation of the enzyme in vivo. (FIG. 12, panel A)

Assay [2] deals with T1, PIP 5-K. In words: In vitro activity of recombinant PIP 5-K (radioactive ATP, TLC). Format: biochemical. Particulars: apoptotic concentrations of H2O2; Cysteine 175 to serine mutant is not sensitive. As to the method:
Panel B: Recombinant wild type PIP 5-K and a point mutation of PIP 5-K—(cysteine 175 altered to a serine residue) were both treated with H2O2 and enzyme activity was assayed in vitro by measuring the amount of product that is produced after incubation with substrate and radioactive ATP. The products were then analysed on TLC plate using phosphoimager.
Recombinant wild type PIP 5-K and a point mutation of PIP 5-K-(cysteine 175 altered to a serine residue) were both treated with H2O2 and enzyme activity was assayed in vitro by measuring the amount of product that is produced after incubation with substrate and radioactive ATP. The products were then analysed on TLC plate using phosphoimager. […] (FIG. 12, panel B).

Assay [3] deals with nuclear PtdIns4P and PtdIns5P in differentiated MEL cells. In words: Mass assay of nuclear PtdIns4P and PtdIns5P in differentiated MEL cells. Particulars: NAC 5 mM or BSO 100 μM for 4 hours, H2O2 500 μM for 15 minutes, vs control-treated cells. Format: cell-based, Murine. As for the experimental part:
B) Differentiated MEL cells were treated with NAC (5 mM) or BSO (100 μM), each for 4 hours, or H2O2 (500 μM) for 15 minutes prior to the isolation of intact nuclei. A mass assay was used to determine the levels of PtdIns4P and PtdIns5P. The results are expressed as % of control-treated differentiated MEL cells and are calculated from 3 independent experiments.
MEL, HEK 293 and HT1080 cells were maintained in routine culture using 10% FCS in DMEM. When required, differentiated MEL cells were prepared by the addition of 1.5% DMSO to the culture medium for a period of 4 days. MEL cells were transfected using Effectene (Qiagen), HEK 293 cells with calcium phosphate and HT1080 with LT1 (Mirus corporation). The following plasmids were used: pEGFP, pCDNA3 (both from Clontech), pCDNA3-Flag-MKK6+ and pCDNA3-Flag-MKK6-(from Dr. M. Schmidt, The Netherlands Cancer Institute), pSuper (from Dr. R. Agami, The Netherlands Cancer Institute), pCDNA3-EGFP-IpgD/IpgE, pCDNA3-EGFP-PIP kinase typeIIβ, and RNAi for type II β PIP kinase (termed pSuper-IIβRNAi). The targeting sequence for the latter was […]. Irradiation of the cells with 254 nm UV-C light (0-200 J/m) or gamma rays (0-40 Gy, from a Cesium 137 source) was performed using 6-well or 10 cm plastic petri dishes with a depth of medium covering the cells not exceeding 3-4 mm. Thereafter, the cells were returned to normal culture conditions for 30 minutes before subcellular fractionation was started. To determine long terms effects of UV and gamma irradiation the cells were returned to normal culture conditions for up to 48 hours.
MEL cells were washed, twice in ice cold PBS before their fractionation using a detergent-free hypotonic buffer. This method yields a mixed cytosol and membrane fraction and intact nuclei after separation using a sucrose cushion. MEL cell nuclei were fractionated into nucleoplasm and the CEF using modifications of a previously published method. Briefly, intact MEL cell nuclei were resuspended in ice cold hypotonic buffer (3 mM EDTA, 0.2 mM EGTA and 1 mM DTT pH 7.85, with protease inhibitors) followed by forced passage (12 times) through a 25 gauge needle. After centrifugation (1700 g) the supernatant (the nucleoplasm) was saved. The pellet (CEF) was washed twice before resuspending by sonication in 10 mM TrisHCl, 10% sucrose, 10 mM MgCl2 pH 7.4, with protease inhibitors. The protein content of all fractions was determined using the Bradford reagent (BioRad). PtdIns4P and PtdIns5P were measured using in vitro mass assays employing recombinant type I and type II PIP kinases, respectively. The product PtdIns(4,5)P2 was separated by TLC. The amount of radioactivity found in PtdIns(4,5)P2 was proportional to the amount of PtdInsP isomer in the neomycin affinity-purified lipid extract.
However, no studies have determined a role for nuclear phosphoinositides or defined downstream protein targets mediating phosphoinositide-stress activated pathways. To study changes in nuclear phosphoinositides in response to cellular stress, we used Murine erythroleukaemia (MEL) cells as a model system because preparations of nuclei from these cells have been proven to be of high purity. To visualise changes in phosphoinositides, various independent methods were used. The mass level of both PtdIns4P and PtdIns5P were measured using an assay that relies on the differential in vitro specificities of type I and type II PIP kinases. […] Gamma irradiation (10 Gy) led to a small (approximately 20%) decrease in the PtdIns4P level but no detectable change in the level of PtdIns5P in whole nuclei (FIG. 1a). To determine if nuclear PtdInsPs were regulated by oxidative stress we treated differentiated MEL cells with H2O2, BSO (L-buthionine[S,R]-sulphoximine, a glutamyl-cysteine synthetase inhibitor, which increases intracellular reactive oxygen species (ROS)) or NAC. (N-acetyl-cysteine, which increases cellular glutathione levels and cell' capability to deal with ROS). […]

Another assay has as its system HeLa cells. In words: Apoptosis of HeLa cells by nuclear morphology. Format: cell-based. Particulars: 600 microMolar, 24 hours. As for the experimental part: HeLa cell were transiently transfected with expression plasmids encoding for the listed proteins. Cell were then treated with 600 microMolar H2O2 for 24 hours. All cells were collected and examined for apoptosis (Example 5).
The inventors have shown that type I PIP kinase protects cells from ROS induced apoptosis. HeLa cells were transiently transfected with expression plasmids encoding for the listed proteins. Cells were then treated with 600 microMolar H2O2 for 24 hours. All cells were collected and examined for apoptosis. Apoptosis was determined by examining nuclear morphology of green cells (GFP Histone) after staining with a nuclear stain. Cells with fragmented nuclei were scored positive for apoptosis. […] Ectopic expression of PIP 5-K protects HeLa cells from apoptosis after H2O2 treatment. Results are in FIG. 11.

T1 sequence (P70181 whole entry): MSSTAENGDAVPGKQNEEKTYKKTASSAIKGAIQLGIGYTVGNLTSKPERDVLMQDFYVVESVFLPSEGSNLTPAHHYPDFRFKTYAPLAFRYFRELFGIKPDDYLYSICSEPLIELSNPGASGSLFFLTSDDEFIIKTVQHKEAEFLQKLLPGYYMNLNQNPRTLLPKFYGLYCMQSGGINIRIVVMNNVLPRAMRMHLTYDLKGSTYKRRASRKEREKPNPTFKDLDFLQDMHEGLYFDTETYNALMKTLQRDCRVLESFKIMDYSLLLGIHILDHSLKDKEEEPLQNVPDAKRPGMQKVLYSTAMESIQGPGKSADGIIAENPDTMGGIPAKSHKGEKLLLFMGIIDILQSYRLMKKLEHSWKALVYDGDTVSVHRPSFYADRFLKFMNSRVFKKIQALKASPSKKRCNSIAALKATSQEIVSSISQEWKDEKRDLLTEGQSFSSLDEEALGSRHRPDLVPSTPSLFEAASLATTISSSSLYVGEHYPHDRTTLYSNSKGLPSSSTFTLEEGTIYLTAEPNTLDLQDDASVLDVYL

Take `OO` [H2O2]: at PIP 5-K [1], the “localisation of GFP PIP 5-K” value is “induces translocation”. For the same molecule, the “activity of recombinant wild type PIP 5-K after treatment” value at PIP 5-K [2] is reported as “sensitive”. For the same molecule, in assay [3], the “level of nuclear PtdIns4P” value was “increased” and the “level of nuclear PtdIns5P” value is listed as “increased”. Also, the “apoptosis (fragmented nuclei)” value with HeLa cells is “induces apoptosis”.
